Experimental data published in patent US7053245B2, “N-acylamino benzyl ether derivatives” (Hoffmann-La Roche Inc., priority 2002, dated 2006).
Structures can show the parent of a compound that is named as a salt.

Target: T1, human MAO-B (Homo sapiens, UniProt P27338)
T1 construct: expressed in transfected cells; host or cells: EBNA cells (transient transfection); cell membranes used
T1 sequence (P27338 1-520): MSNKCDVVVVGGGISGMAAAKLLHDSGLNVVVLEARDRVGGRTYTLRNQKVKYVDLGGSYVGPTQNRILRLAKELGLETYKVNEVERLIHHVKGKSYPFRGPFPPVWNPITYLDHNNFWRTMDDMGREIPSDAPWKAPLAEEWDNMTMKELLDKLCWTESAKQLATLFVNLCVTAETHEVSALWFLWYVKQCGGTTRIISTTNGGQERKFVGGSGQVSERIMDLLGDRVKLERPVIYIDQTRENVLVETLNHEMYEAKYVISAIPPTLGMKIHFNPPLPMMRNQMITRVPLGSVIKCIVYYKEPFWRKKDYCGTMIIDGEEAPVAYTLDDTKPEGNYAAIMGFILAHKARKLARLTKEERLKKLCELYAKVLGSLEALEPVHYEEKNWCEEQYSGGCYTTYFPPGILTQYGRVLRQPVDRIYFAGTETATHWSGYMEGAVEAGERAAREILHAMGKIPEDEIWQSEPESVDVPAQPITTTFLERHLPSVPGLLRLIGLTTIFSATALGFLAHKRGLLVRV
Assay: MAO-B enzymatic activity, spectrophotometric Amplex Red/peroxidase assay on membranes of transfected EBNA cells
Format: biochemical
Details: membranes preincubated with compound 30 min at 37° C., pH 7.4; substrate tyramine; nine inhibitor concentrations in duplicate
Experimental: The cDNA's encoding human MAO-A and MAO-B were transiently transfected into EBNA cells using the procedure described by E.-J. Schlaeger and K. Christensen (Transient Gene Expression in Mammalian Cells Grown in Serum-free Suspension Culture; Cytotechnology, 15: 1-13, 1998). After transfection, cells were homogenised by means of a Polytron homogenizer in 20 mM Tris HCl buffer, pH 8.0, containing 0.5 mM EGTA and 0.5 mM phenylmethanesulfonyl fluoride. Cell membranes were obtained by centrifugation at 45,000×g and, after two rinsing step with 20 mM Tris HCl buffer, pH 8.0, containing 0.5 mM EGTA, membranes were eventually re-suspended in the above buffer and aliquots stored at −80° C. until use.
MAO-A and MAO-B enzymatic activity was assayed in 96-well-plates using a spectrophometric assay adapted from the method described by M. Zhou and N. Panchuk-Voloshina (A One-Step Fluorometric Method for the Continuous Measurement of Monoamine Oxidase Activity, Analytical Biochemistry, 253: 169-174, 1997). Briefly, membrane aliquots were incubated in 0.1 M potassium phosphate buffer, pH 7.4, for 30 min at 37° C. with or without various concentrations of the compounds. After this period, the enzymatic reaction was started by the addition of the MAO substrate tyramine together with 1 U/ml horse-radish peroxidase (Roche Biochemicals) and 80 μM N-acetyl-3,7,-dihydroxyphenoxazine (Amplex Red, Molecular Probes). The samples were further incubated for 30 min at 37° C. in a final volume of 200 μl and absorbance was then determine at a wavelength of 570 nm using a SpectraMax plate reader (Molecular Devices). Background (non-specific) absorbance was determined in the presence of 10 μM clorgyline for MAO-A or 10 μM L-deprenyl for MAO-B.
IC50 values were determined from inhibition curves obtained using nine inhibitor concentrations in duplicate, by fitting data to a four parameter logistic equation using a computer program.

| Compound | IC50 [nM] |
| --- | --- |
| NC(=O)CC(=O)Nc1ccc(C=Cc2ccc(F)cc2)cc1 [Example 57, N-{4-[2-(4-Fluoro-phenyl)-vinyl]-phenyl}-malonamide] | 18 |
| NC(=O)C1(C(=O)Nc2ccc(OCc3cccc(F)c3)cc2)CC1 [Example 2, Cyclopropane-1,1-dicarboxylic acid amide [4-(3-fluoro-benzyloxy)-phenyl]-amide] | 7.9 |
| COC(=O)CC(=O)Nc1ccc(OCc2ccc(F)cc2)cc1 [Example 10, N-[4-(4-Fluoro-benzyloxy)-phenyl]-malonamic acid methyl ester] | 11.2 |
| CC(=O)NCC(=O)Nc1ccc(OCc2cccc(F)c2)cc1F [Example 75, 2-Acetylamino-N-[2-fluoro-4-(3-fluoro-benzyloxy)-phenyl]-acetamide] | 13 |
| COC(=O)CC(=O)Nc1ccc(OCc2ccc(F)cc2)cc1F [Example 39, N-[2-Fluoro-4-(4-fluoro-benzyloxy)-phenyl]-malonamic acid methyl ester] | 5 |
| COC(=O)CC(=O)Nc1ccc(OCc2cccc(F)c2)cc1F [Example 14, N-[2-Fluoro-4-(3-fluoro-benzyloxy)-phenyl]-malonamic acid methyl ester] | 9 |
| CC(C(N)=O)C(=O)Nc1ccc(OCc2cccc(F)c2)cc1 (stereo not drawn) [Example 6, N-[4-(3-Fluoro-benzyloxy)-phenyl]-2-methyl-malonamide] | 13 |
| COC(=O)CC(=O)Nc1ccc(C=Cc2ccc(F)cc2)cc1 [Example 56, N-{4-[2-(4-Fluoro-phenyl)-vinyl]-phenyl}-malonamic acid methyl ester] | 10 |
| Cc1cc(NC(=O)CC(N)=O)ccc1OCc1cccc(F)c1 [Example 48, N-[4-(3-Fluoro-benzyloxy)-3-methyl-phenyl]-malonamide] | 19 |
| NC(=O)CC(=O)Nc1ccc(OCc2cccc(F)c2)cc1O [Example 38, N-[4-(3-Fluoro-benzyloxy)-2-hydroxy-phenyl]-malonamide] | 16 |
| NCC(=O)Nc1ccc(OCc2ccc(F)cc2)cc1F [Example 66, 2-Amino-N-[2-fluoro-4-(4-fluoro-benzyloxy)-phenyl]-acetamide (1:1) hydrochloride] | 16 |
| COC(=O)CC(=O)Nc1ccc(OCc2cccc(F)c2)c(Cl)c1 [Example 49, N-[3-Chloro-4-(3-fluoro-benzyloxy)-phenyl]-malonamic acid methyl ester] | 10 |
| NC(=O)CC(=O)Nc1ccc(OCc2ccc(C(F)(F)F)cc2)cc1F [Example 44, N-[2-Fluoro-4-(4-trifluoromethyl-benzyloxy)-phenyl]-malonamide] | 9 |
| CC(=O)NCC(=O)Nc1ccc(OCc2ccc(F)cc2)cc1F [Example 70, 2-Acetylamino-N-[2-fluoro-4-(4-fluoro-benzyloxy)-phenyl]-acetamide] | 11 |
| COC(=O)CC(=O)Nc1ccc(OCc2cc(C(F)(F)F)cc(C(F)(F)F)c2)cc1F [Example 41, N-[4-(3,5-Bis-trifluoromethyl-benzyloxy)-2-fluoro-phenyl]-malonamic acid methyl ester] | 13 |
| COC(=O)CC(=O)Nc1ccc(OCc2cccc(F)c2)c(F)c1 [Example 8, N-[3-Fluoro-4-(3-fluoro-benzyloxy)-phenyl]-malonamic acid methyl ester] | 9.6 |
| O=CNCC(=O)Nc1ccc(OCc2ccc(F)cc2)cc1F [Example 72, N-[2-Fluoro-4-(4-fluoro-benzyloxy)-phenyl]-2-formylamino-acetamide] | 7 |
| O=CNCC(=O)Nc1ccc(OCc2cccc(F)c2)cc1F [Example 76, N-[2-Fluoro-4-(3-fluoro-benzyloxy)-phenyl]-2-formylamino-acetamide] | 16 |
| NC(=O)CC(=O)Nc1ccc(OCc2cccc(F)c2)c(Cl)c1 [Example 50, N-[3-Chloro-4-(3-fluoro-benzyloxy)-phenyl]-malonamide] | 6 |
| COC(=O)CC(=O)Nc1ccc(OCc2cccc(F)c2)c(C)c1 [Example 47, N-[4-(3-Fluoro-benzyloxy)-3-methyl-phenyl]-malonamic acid methyl ester] | 14 |

More lines, now with the values ahead:

| IC50 [nM] | Compound |
| --- | --- |
| 7.5 | NC(=O)CC(=O)Nc1ccc(OCc2ccc(F)cc2)cc1 [Example 11, N-[4-(4-Fluoro-benzyloxy)-phenyl]-malonamide] |
| 18 | NC(=O)CC(=O)Nc1ccc(OCc2ccc(Cl)cc2)cc1 [Example 34, N-[4-(4-Chloro-benzyloxy)-phenyl]-malonamide] |
| 8 | NC(=O)CC(=O)Nc1ccc(OCc2cc(F)c(F)cc2F)cc1 [Example 29, N-[4-(2,4,5-Trifluoro-benzyloxy)-phenyl]-malonamide] |
| 11 | COC(=O)CC(=O)Nc1ccc(OCc2ccc(F)cc2F)cc1 [Example 25, N-[4-(2,4-Difluoro-benzyloxy)-phenyl]-malonamic acid methyl ester] |
| 7.2 | NC(=O)CC(=O)Nc1ccc(OCc2cccc(F)c2)c(F)c1 [Example 9, N-[3-Fluoro-4-(3-fluoro-benzyloxy)-phenyl]-malonamide] |
| 11 | COC(=O)CC(=O)Nc1ccc(OCc2cc(F)c(F)cc2F)cc1 [Example 27, N-[4-(2,4,5-Trifluoro-benzyloxy)-phenyl]-malonamic acid methyl ester] |
| 10.9 | NC(=O)CC(=O)Nc1ccc(OCc2cccc(F)c2)cc1 [Example 3, N-[4-(3-Fluoro-benzyloxy)-phenyl]-malonamide] |
| 11 | COC(=O)CC(=O)Nc1ccc(OCc2cccc(F)c2)cc1 [Example 1, N-[4-(3-Fluoro-benzyloxy)-phenyl]-malonamic acid methyl ester] |
| 15 | NC(=O)CC(=O)Nc1ccc(OCc2ccc(F)cc2)cc1F [Example 40, N-[2-Fluoro-4-(4-fluoro-benzyloxy)-phenyl]-malonamide] |
| 8 | NC(=O)CC(=O)Nc1ccc(OCc2ccc(F)cc2F)cc1 [Example 28, N-[4-(2,4-Difluoro-benzyloxy)-phenyl]-malonamide] |
